In article PMC5384650 (Molecular microbiology, 2016):

Target: T1, threonine dehydratase (IlvA) (Salmonella enterica, UniProt P20506)
T1 sequence (P20506 1-514): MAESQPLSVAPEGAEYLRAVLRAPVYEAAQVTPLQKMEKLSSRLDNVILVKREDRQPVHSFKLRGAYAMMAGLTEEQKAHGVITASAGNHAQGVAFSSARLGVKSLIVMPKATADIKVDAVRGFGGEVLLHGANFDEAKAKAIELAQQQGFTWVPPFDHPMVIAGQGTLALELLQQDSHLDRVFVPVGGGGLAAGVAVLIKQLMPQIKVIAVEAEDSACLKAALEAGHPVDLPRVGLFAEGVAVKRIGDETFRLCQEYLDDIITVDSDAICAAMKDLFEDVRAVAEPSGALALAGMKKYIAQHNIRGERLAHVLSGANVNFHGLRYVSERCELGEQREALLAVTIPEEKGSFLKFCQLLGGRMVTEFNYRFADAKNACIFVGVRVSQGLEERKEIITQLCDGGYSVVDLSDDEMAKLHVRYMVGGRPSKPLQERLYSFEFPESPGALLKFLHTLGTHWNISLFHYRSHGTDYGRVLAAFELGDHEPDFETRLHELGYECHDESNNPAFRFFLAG
Assay type: biochemical

Structure (SMILES): NC[C@H](N)C(=O)O [Dap, L-2,3-diaminopropionate]
- Ki: 1700 µM
